Patent US7157494B2, “Dimeric compounds and their use as anti-viral agents” (priority 2001, dated 2007)
Values after ≈ are worked out from the molar mass of the structure shown. Values joined by “and” are separate entries in the source; they are usually repeats but may differ in a detail not shown here. Equal entries are not always repeated. Where two headings read alike, the source gives them in different places.

What was measured:
Influenza B/Harbin/7/95 = assay type: cell-based; conditions: concentration that inhibited CPE by 50%; MDCK cells, up to 72 hours, MTT
Influenza A/Sydney/5/97 = assay type: cell-based; conditions: concentration that inhibited CPE by 50%; MDCK cells, up to 72 hours, MTT
B/Hong Kong/5/72 BVLV012 = assay: Plaque reduction assay (PRA) in MDCK cells; assay type: cell-based, influenza B
Method: (§1) Madin Darby Canine Kidney (MDCK) cells are seeded into six well tissue culture plates and grown to confluency via standard methods. Influenza viruses are diluted in a minimal volume of phosphate buffered saline supplemented with 0.2% bovine serum albumin to yield an estimated titre of 50–100 plaque forming units (pfu) per well. After adsorption to the MDCK cells for one hour at 37° C. in a 5% CO2 atmosphere the viral inocula is aspirated and replaced with viral growth media (minimal Eagle's media supplemented with BSA, trypsin and insulin/transferrin/selenium at optimal concentrations) containing sufficient agar or agarose (generally 1–2%) to cause the media to gel at room temperature and at 37° C. in a 5% CO2 atmosphere until plaques develop (generally 2–4 days). Plaques can be visualised with a suitable stain (e.g. 0.4% crystal violet in formal saline) before counting.

[1] = tested on: B/Yamanashi/166/98 BVLV007; assay: Plaque reduction assay (PRA) in MDCK cells; assay type: cell-based, influenza B
Method: as §1

[2] = tested on: A/Sydney/5/97 BVLV015 (H3N2); assay: Plaque reduction assay (PRA) in MDCK cells; assay type: cell-based, influenza A H3N2
Method: as §1

[3] = tested on: A/Victoria/3/75 BVLV017 (H3N2); assay: Plaque reduction assay (PRA) in MDCK cells; assay type: cell-based, influenza A H3N2
Method: as §1

[4] = tested on: A/Panama/2007/99 BVLV008 (H3N2); assay: Plaque reduction assay (PRA) in MDCK cells; assay type: cell-based, influenza A H3N2
Method: as §1

[5] = Rat lung retention assay (intra-tracheal dosing, compound level in lung tissue); assay type: in vivo; conditions: for [cmpd] / Mean [cmpd]: rat lung tissue; for [cmpd]: individual animal
Method: Rodents are anaesthetised and dosed with compound of interest by the intra-tracheal route at a dose volume of 0.8 ml/kg. The rodent is then held in the vertical position until full recovery is achieved. […] Any analytical method suitable for detection of this type of compound may be used. The time at which levels of compound fall below the sensitivity of the analytical techniques identified will determine the residency time of the compound in lung tissue.
Please note that all experiments included a co-dosed internal standard, namely compound 3 of International Patent Publication No. WO 02/20514, to permit comparison. The data are expressed as a ratio with respect to this compound, the structure of which is shown below.

[6] = tested on: A/New Caledonia/20/99 BVLV008 (H1N1); assay: Plaque reduction assay (PRA) in MDCK cells; assay type: cell-based, influenza A H1N1
Method: as §1

[7] = tested on: A/Bayern/7/95 BVL006 (H1N1); assay: Plaque reduction assay (PRA) in MDCK cells; assay type: cell-based, influenza A H1N1
Method: as §1

A/WSN/33 BVLV09 (H1N1) = assay: Plaque reduction assay (PRA) in MDCK cells; assay type: cell-based, influenza A H1N1
Method: as §1

recent clinical isolates = conditions: in vitro assays involving recent clinical isolates, Woods et al 1993; cited from earlier work
[8] = rat, in vivo, 0.1 mg/kg, Mean [cmpd] ng/g

CC(=O)N[C@H]1[C@H]([C@H](OC(=O)NCCCCCCNC(=O)c2ccccc2C(=O)NCCCCCCNC(=O)O[C@@H]([C@@H]2OC(C(=O)O)=C[C@H](NC(=N)N)[C@H]2NC(C)=O)[C@H](O)CO)[C@H](O)CO)OC(C(=O)O)=C[C@@H]1NC(=N)N [Compound 7]
ID50 B/Harbin/7/95 (Influenza B/Harbin/7/95): 0.8 ng/mL (≈ 0.741 nM)
ID50 A/Sydney/5/97 (Influenza A/Sydney/5/97): 0.7 ng/mL (≈ 0.649 nM)

CC(=O)N[C@H]1[C@H]([C@H](OC(=O)NCCCCCCNC(=O)c2cccc(C(=O)NCCCCCCNC(=O)O[C@@H]([C@@H]3OC(C(=O)O)=C[C@H](NC(=N)N)[C@H]3NC(C)=O)[C@H](O)CO)c2)[C@H](O)CO)OC(C(=O)O)=C[C@@H]1NC(=N)N [Compound 8]
ID50 B/Harbin/7/95 (Influenza B/Harbin/7/95): 0.9 ng/mL (≈ 0.834 nM)
ID50 A/Sydney/5/97 (Influenza A/Sydney/5/97): 0.4 ng/mL (≈ 0.371 nM)

CC(=O)N[C@H]1[C@H]([C@H](OC(=O)NCCCNC(=O)c2ccc(C(=O)NCCCNC(=O)O[C@@H]([C@@H]3OC(C(=O)O)=C[C@H](NC(=N)N)[C@H]3NC(C)=O)[C@H](O)CO)cc2)[C@H](O)CO)OC(C(=O)O)=C[C@@H]1NC(=N)N [Compound 5]
EC50 PRA B/HongK (B/Hong Kong/5/72 BVLV012): 0.316 ng/mL (≈ 0.318 nM)
EC50 PRA B/Yam [1]: 0.022 ng/mL (≈ 0.0221 nM)
EC50 PRA A/Syd [2]: 0.05 ng/mL (≈ 0.0503 nM)
EC50 PRA A/Vic [3]: 0.003 ng/mL (≈ 0.00302 nM)
EC50 PRA A/Pan [4]: 0.03 ng/mL (≈ 0.0302 nM)
[cmpd] ([5]; 48 hrs, 0.1 mg/kg intra-tracheal, 0.1 mg/kg): 1325 ng/g and 750 ng/g and 778 ng/g
Mean [cmpd] ([5]; 48 hrs, 0.1 mg/kg intra-tracheal): 951 ng/g
[cmpd] ([5]; 168 hrs, 0.1 mg/kg intra-tracheal, 0.1 mg/kg): 272 ng/g and 636 ng/g and 300 ng/g
Mean [cmpd] ([5]; 168 hrs, 0.1 mg/kg intra-tracheal): 403 ng/g
Ratio Mean [lung] [cmpd]/PCT AU01/01128 compound 3 ([5]; rat lung, 48 hrs, 0.1 mg/kg intra-tracheal): 0.68
Ratio Mean [lung] [cmpd]/PCT AU01/01128 compound 3 ([5]; rat lung, 168 hrs, 0.1 mg/kg intra-tracheal): 0.41
EC50 PRA A/New [6]: 0.06 ng/mL (≈ 0.0603 nM)
EC50 PRA A/Bay [7]: 0.009 ng/mL (≈ 0.00905 nM)
EC50 PRA A/WSN (A/WSN/33 BVLV09 (H1N1)): 0.02 ng/mL (≈ 0.0201 nM)

CC(=O)N[C@H]1[C@H]([C@H](OC(=O)NCCCNC(=O)c2cccc(C(=O)NCCCNC(=O)O[C@@H]([C@@H]3OC(C(=O)O)=C[C@H](NC(=N)N)[C@H]3NC(C)=O)[C@H](O)CO)c2)[C@H](O)CO)OC(C(=O)O)=C[C@@H]1NC(=N)N [Compound 11]
ID50 B/Harbin/7/95 (Influenza B/Harbin/7/95): 0.1 ng/mL (≈ 0.101 nM)
ID50 A/Sydney/5/97 (Influenza A/Sydney/5/97): 0.1 ng/mL (≈ 0.101 nM)

CC(=O)N[C@H]1[C@H]([C@H](OC(=O)NCCCNC(=O)c2cc(C(=O)O)cc(C(=O)NCCCNC(=O)O[C@@H]([C@@H]3OC(C(=O)O)=C[C@H](NC(=N)N)[C@H]3NC(C)=O)[C@H](O)CO)c2)[C@H](O)CO)OC(C(=O)O)=C[C@@H]1NC(=N)N [Compound 9]
ID50 B/Harbin/7/95 (Influenza B/Harbin/7/95): 0.3 ng/mL (≈ 0.289 nM)
ID50 A/Sydney/5/97 (Influenza A/Sydney/5/97): 0.1 ng/mL (≈ 0.0962 nM)

CC(=O)N[C@H]1[C@H]([C@H](OC(=O)NCCCCNC(=O)c2cccc(C(=O)NCCCCNC(=O)O[C@@H]([C@@H]3OC(C(=O)O)=C[C@H](NC(=N)N)[C@H]3NC(C)=O)[C@H](O)CO)c2)[C@H](O)CO)OC(C(=O)O)=C[C@@H]1NC(=N)N [Compound 1]
Ratio Mean [lung] [cmpd]/PCT AU01/01128 compound 3 ([5]; rat, in vivo, 0.1 mg/kg, 48 h): 0.44
Ratio Mean [lung] [cmpd]/PCT AU01/01128 compound 3 ([5]; rat, in vivo, 0.1 mg/kg, 168 h): 0.41
concentration at 48 h [5, 8]: 1280 ng/g
concentration at 168 h [5, 8]: 372 ng/g

CC(=O)N[C@H]1[C@H]([C@H](OC(=O)NCCCCCCNC(=O)c2ccc(C(=O)NCCCCCCNC(=O)O[C@@H]([C@@H]3OC(C(=O)O)=C[C@H](NC(=N)N)[C@H]3NC(C)=O)[C@H](O)CO)cc2)[C@H](O)CO)OC(C(=O)O)=C[C@@H]1NC(=N)N [Compound 6]
ID50 B/Harbin/7/95 (Influenza B/Harbin/7/95): 0.9 ng/mL (≈ 0.834 nM)
ID50 A/Sydney/5/97 (Influenza A/Sydney/5/97): 0.2 ng/mL (≈ 0.185 nM)

CC(=O)N[C@@H]1C(N=C(N)N)C=C(C(=O)O)O[C@H]1[C@H](O)[C@H](O)CO (single isomer, unassigned) [Compound A, 4-guanidino-2-deoxy-2,3-dehydro-N-acetylneuraminic acid, reference compound]
EC50 (B/Hong Kong/5/72 BVLV012; Influenza B virus, MDCK, reduces plaque numbers by 50%, B/Hong Kong/5/72, read-out: EC50 PRA B/HongK): 21 ng/mL (≈ 63.2 nM)
EC50 ([2]; Influenza A virus, MDCK, reduces plaque numbers by 50%, A/Sydney/5/97 (H3N2), read-out: EC50 PRA A/Syd): 2.4 ng/mL (≈ 7.22 nM)
EC50 ([3]; Influenza A virus, MDCK, reduces plaque numbers by 50%, A/Victoria/3/75 (H3N2), read-out: EC50 PRA A/Vic): 5.5 ng/mL (≈ 16.6 nM)
EC50 ([4]; Influenza A virus, H3N2, MDCK, reduces plaque numbers by 50%, A/Panama/2007/99 (H3N2), read-out: EC50 PRA A/Pan): 2.7 ng/mL (≈ 8.12 nM)
EC50 PRA A/Pan ([4]; reduces plaque numbers by 50%, A/Panama/2007/99 (H3N2)): 3 ng/mL (≈ 9.03 nM)
Ratio Mean [lung] [cmpd]/PCT AU01/01128 compound 3 ([5]; rat, in vivo, 0.1 mg/kg, 48 h): 0.26
Ratio Mean [lung] [cmpd]/PCT AU01/01128 compound 3 ([5]; rat, in vivo, 0.1 mg/kg, 168 h): 0.08
concentration at 48 h [5, 8]: 352 ng/g
concentration at 168 h [5, 8]: 61 ng/g
concentration at 48 h ([5]; rat, in vivo, 0.1 mg/kg, [cmpd] ng/g): 421 ng/g
ID50 B/Harbin/7/95 (Influenza B/Harbin/7/95): 13 ± 11 ng/mL (≈ 39.1 nM)
ID50 A/Sydney/5/97 (Influenza A/Sydney/5/97): 23 ± 24 ng/mL (≈ 69.2 nM)
EC50 ([6]; Influenza A virus, H1N1, MDCK, reduces plaque numbers by 50%, A/New Caledonia/20/99 (H1N1)): 0.27 ng/mL (≈ 0.812 nM)
EC50 PRA A/New ([6]; reduces plaque numbers by 50%, A/New Caledonia/20/99 (H1N1)): 0.23 ng/mL (≈ 0.692 nM)
EC50 ([7]; Influenza A virus, MDCK, reduces plaque numbers by 50%, A/Bayern/7/95 (H1N1), read-out: EC50 PRA A/Bay): 35 ng/mL (≈ 105 nM)
EC50 (A/WSN/33 BVLV09 (H1N1); Influenza A virus, MDCK, reduces plaque numbers by 50%, A/WSN/33 (H1N1)): 56 ng/mL (≈ 169 nM)
EC50 PRA A/WSN (A/WSN/33 BVLV09 (H1N1); reduces plaque numbers by 50%, A/WSN/33 (H1N1)): > 100 ng/mL
EC50 (recent clinical isolates): 20 to 160 nM
